Experimental data: ChEMBL document CHEMBL4385598, “A comprehensive review of topoisomerase inhibitors as anticancer agents in the past decade” (Eur J Med Chem, 2019)

How the values were obtained:
Ca-Ski = assay: Cytotoxicity against human CaSki cells assessed as reduction in cell growth incubated for 48 hrs by SRB assay; type: functional, cell-based
HeLa [1] = assay: Cytotoxicity against human HeLa cells assessed as reduction in cell growth incubated for 48 hrs by SRB assay; type: functional, cell-based
T47D = assay: Cytotoxicity against human T47D cells assessed as reduction in cell growth preincubated for 4 hrs in FBS starvation condition followed by incubation for 2 days by CCK8-based cell counting method; type: functional
[2] = target: T1, DNA topoisomerase I (Bos taurus) (UniProt F1MN93); assay: Inhibition of calf thymus DNA topoisomerase 1 using supercoiled pBR322 plasmid DNA as substrate at 20 uM after 30 mins by agarose gel electrophoresis method relative to control
T1 sequence (whole entry): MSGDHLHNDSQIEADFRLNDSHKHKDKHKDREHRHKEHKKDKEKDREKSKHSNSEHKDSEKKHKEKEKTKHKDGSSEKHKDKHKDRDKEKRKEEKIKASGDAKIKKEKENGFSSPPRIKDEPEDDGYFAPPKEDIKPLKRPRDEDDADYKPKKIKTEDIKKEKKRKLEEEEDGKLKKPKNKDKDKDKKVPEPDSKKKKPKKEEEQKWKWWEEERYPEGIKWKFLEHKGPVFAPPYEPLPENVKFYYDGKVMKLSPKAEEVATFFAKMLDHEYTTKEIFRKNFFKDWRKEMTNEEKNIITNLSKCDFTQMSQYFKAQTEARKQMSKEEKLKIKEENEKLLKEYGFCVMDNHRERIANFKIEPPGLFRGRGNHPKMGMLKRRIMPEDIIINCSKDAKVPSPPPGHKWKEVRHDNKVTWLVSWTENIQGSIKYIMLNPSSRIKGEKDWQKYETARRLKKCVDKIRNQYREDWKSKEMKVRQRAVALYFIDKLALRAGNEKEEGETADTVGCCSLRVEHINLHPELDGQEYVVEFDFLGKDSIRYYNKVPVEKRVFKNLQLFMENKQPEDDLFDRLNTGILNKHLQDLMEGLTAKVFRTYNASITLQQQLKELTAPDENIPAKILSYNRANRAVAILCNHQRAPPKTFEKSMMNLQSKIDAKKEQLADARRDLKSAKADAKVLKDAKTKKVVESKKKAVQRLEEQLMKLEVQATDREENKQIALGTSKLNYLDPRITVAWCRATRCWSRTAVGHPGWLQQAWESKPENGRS

[3] = target: DNA topoisomerase 2-alpha (Homo sapiens) (UniProt P11388); assay: Inhibition of human DNA topoisomerase 2 using supercoiled pBR322 plasmid DNA as substrate at 20 uM after 30 mins by agarose gel electrophoresis method relative to control
L1210 = assay: Antitumor activity against mouse L1210 cells assessed as reduction in cell viability by MTT assay; type: functional, cell-based
HL-60 = assay: Antitumor activity against human HL60 cells assessed as reduction in cell viability by MTT assay; type: functional, cell-based
A549 = assay: Cytotoxicity against human A549 cells assessed as reduction in cell viability incubated for 24 hrs by MTT assay; type: functional, cell-based; details: A549, 24 h
K562 = assay: Antiproliferative activity against human K562 cells assessed as reduction in cell growth incubated for 48 hrs by MTT assay; type: functional, cell-based; details: K562, 48 h
K562/A02 = assay: Antiproliferative activity against human K562/A02 cells assessed as reduction in cell growth incubated for 48 hrs by MTT assay; type: functional, cell-based; details: K562/A02, 48 h
HeLa [4] = assay: Antiproliferative activity against human HeLa cells assessed as reduction in cell growth incubated for 48 hrs by MTT assay; type: functional, cell-based
HCT-116 = assay: Cytotoxicity against human HCT116 cells assessed as reduction in cell growth by WST-1 assay; type: functional, cell-based

Chain of DNA topoisomerase 2-alpha (Homo sapiens) (P11388 whole entry): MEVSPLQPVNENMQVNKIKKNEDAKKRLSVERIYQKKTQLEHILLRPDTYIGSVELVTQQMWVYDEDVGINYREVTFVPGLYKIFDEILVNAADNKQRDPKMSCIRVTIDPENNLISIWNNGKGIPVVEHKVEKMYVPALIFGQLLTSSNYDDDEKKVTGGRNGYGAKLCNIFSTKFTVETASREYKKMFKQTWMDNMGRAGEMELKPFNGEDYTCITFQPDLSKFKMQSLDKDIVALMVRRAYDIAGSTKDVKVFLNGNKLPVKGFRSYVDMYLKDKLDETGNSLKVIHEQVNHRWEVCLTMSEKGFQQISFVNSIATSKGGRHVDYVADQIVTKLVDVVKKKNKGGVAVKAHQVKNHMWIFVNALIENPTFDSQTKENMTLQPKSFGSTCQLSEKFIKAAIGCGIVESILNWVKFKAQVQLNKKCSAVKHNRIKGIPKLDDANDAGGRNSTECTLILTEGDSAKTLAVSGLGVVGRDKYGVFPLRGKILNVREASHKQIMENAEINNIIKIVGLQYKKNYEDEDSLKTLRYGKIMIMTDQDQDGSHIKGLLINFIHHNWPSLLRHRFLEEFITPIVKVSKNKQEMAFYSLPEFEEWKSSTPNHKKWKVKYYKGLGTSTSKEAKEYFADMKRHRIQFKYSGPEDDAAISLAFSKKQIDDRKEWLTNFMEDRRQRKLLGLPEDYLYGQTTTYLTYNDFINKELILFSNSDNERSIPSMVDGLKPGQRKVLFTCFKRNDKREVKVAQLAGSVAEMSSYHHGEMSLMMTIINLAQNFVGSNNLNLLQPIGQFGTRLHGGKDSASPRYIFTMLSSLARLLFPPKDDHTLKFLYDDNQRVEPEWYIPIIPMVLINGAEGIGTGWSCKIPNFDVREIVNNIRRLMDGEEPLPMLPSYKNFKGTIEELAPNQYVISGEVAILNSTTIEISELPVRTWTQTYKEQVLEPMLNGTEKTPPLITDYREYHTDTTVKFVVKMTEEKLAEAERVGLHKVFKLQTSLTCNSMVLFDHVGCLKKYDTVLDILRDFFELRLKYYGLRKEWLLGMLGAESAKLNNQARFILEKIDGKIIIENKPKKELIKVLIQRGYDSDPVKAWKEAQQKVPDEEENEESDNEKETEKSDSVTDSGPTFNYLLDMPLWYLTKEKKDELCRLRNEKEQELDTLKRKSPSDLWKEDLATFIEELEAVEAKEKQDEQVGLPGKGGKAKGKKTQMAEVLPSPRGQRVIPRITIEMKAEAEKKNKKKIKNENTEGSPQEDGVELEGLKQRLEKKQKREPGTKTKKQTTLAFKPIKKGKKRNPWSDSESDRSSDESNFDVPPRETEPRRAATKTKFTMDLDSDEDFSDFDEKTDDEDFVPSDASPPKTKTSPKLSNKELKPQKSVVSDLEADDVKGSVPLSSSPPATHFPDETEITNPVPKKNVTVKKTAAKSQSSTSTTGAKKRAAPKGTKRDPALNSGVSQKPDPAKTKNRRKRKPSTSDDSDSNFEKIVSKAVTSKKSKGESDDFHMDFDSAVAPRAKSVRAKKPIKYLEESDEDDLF

COc1cc(CN2CCN(c3ccccc3[N+](=O)[O-])CC2)c2cc3[n+](cc2c1OC)CCc1cc2c(cc1-3)OCO2.[Cl-]
IC50 (Ca-Ski): < 6 µg/mL | IC50 (HeLa [1]): < 6 µg/mL

Oc1cccc(-c2cc(-c3cccc(Cl)c3)cc(-c3ccco3)n2)c1
IC50 (T47D): 0.68 to 1.25 µM

CCCCC[C@H](O)[C@@H](O)/C=C/[C@@H](O)CCCCCCCC(=O)O
inhibition [2]: 41% | inhibition [3]: 97%

COc1ccc(/C=N/NC(=O)c2cn(C3CC3)c3cc(N4CCNCC4)c(F)cc3c2=O)cc1
IC50 (L1210): ≤ 25 µM | IC50 (HL-60): ≤ 25 µM

O=C(N/N=C/c1ccccc1[N+](=O)[O-])c1cn(C2CC2)c2cc(N3CCNCC3)c(F)cc2c1=O
IC50 (L1210): ≤ 25 µM | IC50 (HL-60): ≤ 25 µM

CCCCCCCCCCCCCCCC(=O)O [PALMITIC ACID]
IC50 (A549): 150 µM

O=C(N/N=C/c1ccccc1)c1cn(C2CC2)c2cc(N/N=C/c3ccccc3)c(F)cc2c1=O
IC50 (L1210): ≤ 25 µM | IC50 (HL-60): ≤ 25 µM

O=C(N/N=C/c1ccccc1)c1cn(C2CC2)c2cc(N3CCNCC3)c(F)cc2c1=O
IC50 (L1210): ≤ 25 µM | IC50 (HL-60): ≤ 25 µM

O=C(N/N=C/c1ccccc1O)c1cn(C2CC2)c2cc(N/N=C/c3ccccc3O)c(F)cc2c1=O
IC50 (L1210): ≤ 25 µM | IC50 (HL-60): ≤ 25 µM

CC[C@@]1(O)C(=O)OCc2c1cc1n(c2=O)Cc2cc3ccccc3nc2-1
inhibition [2]: 51%

COc1ccc(/C=N/NC(=O)c2cn(C3CC3)c3cc(N/N=C/c4ccc(OC)cc4)c(F)cc3c2=O)cc1
IC50 (L1210): ≤ 25 µM | IC50 (HL-60): ≤ 25 µM

COc1cc([C@@H]2c3cc4c(cc3[C@@H](NC/C=C/c3ccc(CN5CCN(c6ccc([N+](=O)[O-])cc6)CC5)o3)[C@H]3COC(=O)[C@H]23)OCO4)cc(OC)c1OC
IC50 (K562): 6.42 µM | IC50 (K562/A02): 6.89 µM | IC50 (HeLa [4]): 7.93 µM

Oc1cccc(-c2cc(-c3ccc(Cl)cc3)cc(-c3ccccc3)n2)c1
IC50 (T47D): 0.68 to 1.25 µM

COc1cc(CN2CCN(c3ccc(OC(F)(F)F)cc3)CC2)c2cc3[n+](cc2c1OC)CCc1cc2c(cc1-3)OCO2.[Cl-]
IC50 (Ca-Ski): < 6 µg/mL | IC50 (HeLa [1]): < 6 µg/mL

COc1cc(CN2CCN(c3ccc(Cl)cc3)CC2)c2cc3[n+](cc2c1OC)CCc1cc2c(cc1-3)OCO2.[Cl-]
IC50 (Ca-Ski): < 6 µg/mL | IC50 (HeLa [1]): < 6 µg/mL

COc1ccc(/C=N/NC(=O)c2cn(C3CC3)c3cc(N/N=C/c4ccc(OC)c(O)c4)c(F)cc3c2=O)cc1O
IC50 (L1210): ≤ 25 µM | IC50 (HL-60): ≤ 25 µM

O=C(N/N=C/c1ccccc1[N+](=O)[O-])c1cn(C2CC2)c2cc(N/N=C/c3ccccc3[N+](=O)[O-])c(F)cc2c1=O
IC50 (L1210): ≤ 25 µM | IC50 (HL-60): ≤ 25 µM

COc1cc(CN2CCN(c3ccccc3F)CC2)c2cc3[n+](cc2c1OC)CCc1cc2c(cc1-3)OCO2.[Cl-]
IC50 (Ca-Ski): < 6 µg/mL | IC50 (HeLa [1]): < 6 µg/mL

Oc1cccc(-c2cc(-c3cccc(Cl)c3)cc(-c3ccccc3)n2)c1
IC50 (T47D): 0.68 to 1.25 µM

O=C(N/N=C/c1ccccc1O)c1cn(C2CC2)c2cc(N3CCNCC3)c(F)cc2c1=O
IC50 (L1210): ≤ 25 µM | IC50 (HL-60): ≤ 25 µM

Oc1cccc(-c2cc(-c3ccc(Cl)cc3)cc(-c3ccsc3)n2)c1
IC50 (T47D): 0.68 to 1.25 µM

O=C(N/N=C/c1ccc(F)cc1)c1cn(C2CC2)c2cc(N/N=C/c3ccc(F)cc3)c(F)cc2c1=O
IC50 (L1210): ≤ 25 µM | IC50 (HL-60): ≤ 25 µM

Oc1cccc(-c2cc(-c3cccc(Cl)c3)cc(-c3ccsc3)n2)c1
IC50 (T47D): 0.68 to 1.25 µM

COc1cc(CN2CCN(c3cccc(Cl)c3)CC2)c2cc3[n+](cc2c1OC)CCc1cc2c(cc1-3)OCO2.[Cl-]
IC50 (Ca-Ski): < 6 µg/mL | IC50 (HeLa [1]): < 6 µg/mL

COc1cc(/C=N/NC(=O)c2cn(C3CC3)c3cc(N4CCNCC4)c(F)cc3c2=O)cc(OC)c1OC
IC50 (L1210): ≤ 25 µM | IC50 (HL-60): ≤ 25 µM

Oc1cccc(-c2cc(-c3ccccc3Cl)cc(-c3ccccc3)n2)c1
IC50 (T47D): 0.68 to 1.25 µM

COc1cc(CN2CCN(c3ccc(C)cc3)CC2)c2cc3[n+](cc2c1OC)CCc1cc2c(cc1-3)OCO2.[Cl-]
IC50 (Ca-Ski): < 6 µg/mL | IC50 (HeLa [1]): < 6 µg/mL

O=C(N/N=C/c1ccc(F)cc1)c1cn(C2CC2)c2cc(N3CCNCC3)c(F)cc2c1=O
IC50 (L1210): ≤ 25 µM | IC50 (HL-60): ≤ 25 µM

Oc1cccc(-c2cc(-c3cccc(Cl)c3)cc(-c3cccs3)n2)c1
IC50 (T47D): 0.68 to 1.25 µM

O=c1c(O)c(-c2cc(O)c(O)c(O)c2)oc2cc(O)cc(O)c12 [MYRICETIN]
IC50 (HCT-116): 28.2 µM

COc1cc(CN2CCN(c3ccc(C(F)(F)F)cc3)CC2)c2cc3[n+](cc2c1OC)CCc1cc2c(cc1-3)OCO2.[Cl-]
IC50 (Ca-Ski): < 6 µg/mL | IC50 (HeLa [1]): < 6 µg/mL

COc1ccc(/C=N/NC(=O)c2cn(C3CC3)c3cc(N4CCNCC4)c(F)cc3c2=O)cc1O
IC50 (L1210): ≤ 25 µM | IC50 (HL-60): ≤ 25 µM

COc1cc(CN2CCN(c3ccccc3Cl)CC2)c2cc3[n+](cc2c1OC)CCc1cc2c(cc1-3)OCO2.[Cl-]
IC50 (Ca-Ski): < 6 µg/mL | IC50 (HeLa [1]): < 6 µg/mL

O=C(N/N=C/c1ccc2c(c1)OCO2)c1cn(C2CC2)c2cc(N3CCNCC3)c(F)cc2c1=O
IC50 (L1210): ≤ 25 µM | IC50 (HL-60): ≤ 25 µM

COc1cc(/C=N/NC(=O)c2cn(C3CC3)c3cc(N/N=C/c4cc(OC)c(OC)c(OC)c4)c(F)cc3c2=O)cc(OC)c1OC
IC50 (L1210): ≤ 25 µM | IC50 (HL-60): ≤ 25 µM

COc1cc(CN2CCN(c3ccc([N+](=O)[O-])cc3)CC2)c2cc3[n+](cc2c1OC)CCc1cc2c(cc1-3)OCO2.[Cl-]
IC50 (Ca-Ski): < 6 µg/mL | IC50 (HeLa [1]): < 6 µg/mL

O=C(N/N=C/c1ccc2c(c1)OCO2)c1cn(C2CC2)c2cc(N/N=C/c3ccc4c(c3)OCO4)c(F)cc2c1=O
IC50 (L1210): ≤ 25 µM | IC50 (HL-60): ≤ 25 µM

Oc1cccc(-c2cc(-c3ccccc3Cl)cc(-c3ccsc3)n2)c1
IC50 (T47D): 0.68 to 1.25 µM

Oc1ccc(-c2cc(-c3ccccc3Cl)cc(-c3ccco3)n2)cc1
IC50 (T47D): 0.68 to 1.25 µM

COc1cc(CN2CCN(c3ccc(F)cc3)CC2)c2cc3[n+](cc2c1OC)CCc1cc2c(cc1-3)OCO2.[Cl-]
IC50 (Ca-Ski): < 6 µg/mL | IC50 (HeLa [1]): < 6 µg/mL

Oc1cccc(-c2cc(-c3ccc(Cl)cc3)cc(-c3ccco3)n2)c1
IC50 (T47D): 0.68 to 1.25 µM
